PubChem BioAssay AID212 (DTP/NCI, 2004)
“And” between values parts separate entries of the source, which are not always exact repeats. Equal entries are not always repeated. Results filed as inconclusive are left out.

Test system: BDF1 mice, colon carcinoma 38 sc, T/C %
Experiment: NCI In Vivo Anticancer Drug Screen. Data for tumor model Colon Carcinoma 38 (subcutaneous) in B6D2F1 (BDF1) mice
Settings: endpoint: median tumor weight (est.), higher = larger tumour
Summary of the method: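 Mice with transplanted tumors are treated with compound or vehicle. Survival or tumor size is then measured in both groups. The ratio of treated to control gives the reported figure.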

[1] = dose: 50.0 mg/kg/injection, schedule: Q07DX002 (ip), vehicle: Klucel (hydroxypropylcellulose) (HPC)
[2] = dose: 6.25 mg/kg/injection, schedule: Q07DX002 (ip), vehicle: water
[3] = dose: 25.0 mg/kg/injection, schedule: Q07DX002 (ip), vehicle: water
[4] = dose: 100.0 mg/kg/injection, schedule: Q07DX002 (ip), vehicle: water
[5] = dose: 100.0 mg/kg/injection, schedule: Q07DX002 (ip), vehicle: saline
[6] = dose: 200.0 mg/kg/injection, schedule: Q07DX002 (ip), vehicle: saline
[7] = dose: 400.0 mg/kg/injection, schedule: Q07DX002 (ip), vehicle: saline
[8] = dose: 1600.0 mg/kg/injection, schedule: Q07DX002 (ip), vehicle: saline
[9] = dose: 2.0 mg/kg/injection, schedule: Q07DX002 (ip), vehicle: saline
[10] = dose: 4.0 mg/kg/injection, schedule: Q07DX002 (ip), vehicle: saline

**Q.** What does the source list for `ClC1=C(Cl)C(Cl)=C(Cl)C1=Cc1ccccc1`?
**A.** T/C (dose: 0.78 mg/kg/injection, schedule: Q07DX002 (ip), vehicle: saline with Tween-80): 119 % of control; T/C (dose: 1.56 mg/kg/injection, schedule: Q07DX002 (ip), vehicle: saline with Tween-80): 95 % of control; T/C (dose: 6.25 mg/kg/injection, schedule: Q07DX002 (ip), vehicle: saline with Tween-80): 114 % of control; T/C (dose: 12.5 mg/kg/injection, schedule: Q07DX002 (ip), vehicle: saline with Tween-80): 114 % of control; T/C (dose: 25.0 mg/kg/injection, schedule: Q07DX002 (ip), vehicle: saline with Tween-80): 58 % of control

**Q.** `O=c1oc2c(O)c(O)cc3c(=O)oc4c(O)c(O)cc1c4c23` was tested. Which T/C (dose: 12.5 mg/kg/injection, schedule: Q07DX002 (ip), vehicle: Klucel (hydroxypropylcellulose) (HPC)) did it give?
**A.** 195 % of control

**Q.** What about the T/C (dose: 25.0 mg/kg/injection, schedule: Q07DX002 (ip), vehicle: Klucel (hydroxypropylcellulose) (HPC)) of the same molecule?
**A.** 200 % of control

**Q.** What about the T/C [1] of the same molecule?
**A.** 181 % of control

**Q.** And the T/C (dose: 400.0 mg/kg/injection, schedule: Q07DX002 (ip), vehicle: Klucel (hydroxypropylcellulose) (HPC))?
**A.** 155 % of control

**Q.** Which results are given for `CN1N=C(N)c2cn(C3OC(COP(=O)(O)O)C(O)C3O)c3ncnc1c23` (stereo not given)?
**A.** T/C [2]: 84 % of control; T/C [3]: 68 % of control and 91 % of control; T/C [4]: 73 % of control

**Q.** How did the T/C (dose: 4.75 mg/kg/injection, schedule: Q07DX002 (ip), vehicle: distilled water + Tween-80) turn out when `Cc1cc2c(cc1C)C(=O)c1c(O)c3c(c(O)c1C2=O)C[C@@](O)(C(=O)CO)C[C@@H]3OC1CC(N)C(O)C(C)O1` (stereo not given in full) was run?
**A.** 51 % of control

**Q.** What about the T/C (dose: 6.33 mg/kg/injection, schedule: Q07DX002 (ip), vehicle: distilled water + Tween-80) of the same molecule?
**A.** 65 % of control

**Q.** What about the T/C (dose: 8.44 mg/kg/injection, schedule: Q07DX002 (ip), vehicle: distilled water + Tween-80) of the same molecule?
**A.** 28 % of control

**Q.** And the T/C (dose: 11.25 mg/kg/injection, schedule: Q07DX002 (ip), vehicle: distilled water + Tween-80)?
**A.** 23 % of control

**Q.** And the T/C (dose: 15.0 mg/kg/injection, schedule: Q07DX002 (ip), vehicle: distilled water + Tween-80)?
**A.** 17 % of control

**Q.** How did the T/C (dose: 9.3 mg/kg/injection, schedule: Q07DX003 (ip), vehicle: saline) turn out when `CS(=O)(=O)OCCCNCCCOS(C)(=O)=O` was run?
**A.** 43 % of control

**Q.** What about the T/C (dose: 18.75 mg/kg/injection, schedule: Q07DX003 (ip), vehicle: saline) of the same molecule?
**A.** 73 % of control

**Q.** And the T/C (dose: 37.5 mg/kg/injection, schedule: Q07DX003 (ip), vehicle: saline)?
**A.** 58 % of control

**Q.** What about the T/C (dose: 75.0 mg/kg/injection, schedule: Q07DX003 (ip), vehicle: saline) of the same molecule?
**A.** 36 % of control

**Q.** What does the source list for `O=C(O)Cc1cccc2c(=O)cc(-c3ccc4ccccc4c3)oc12`?
**A.** T/C [5]: 104 % of control; T/C [6]: 59 % of control

**Q.** For `N#C[C@H](OC1OC(COC2OC(CO)C(O)C(O)C2O)C(O)C(O)C1O)c1ccccc1` (stereo not given in full), which T/C (dose: 50.0 mg/kg/injection, schedule: Q07DX002 (ip), vehicle: saline) is on record?
**A.** 76 % of control

**Q.** And the T/C (dose: 50.0 mg/kg/injection, schedule: Q07DX002 (ip), vehicle: water)?
**A.** 70 % of control

**Q.** And the T/C [5]?
**A.** 103 % of control

**Q.** And the T/C [4]?
**A.** 70 % of control

**Q.** And the T/C [6]?
**A.** 62 % of control

**Q.** And the T/C (dose: 200.0 mg/kg/injection, schedule: Q07DX002 (ip), vehicle: water)?
**A.** 85 % of control

**Q.** And the T/C [7]?
**A.** 76 % of control

**Q.** And the T/C (dose: 400.0 mg/kg/injection, schedule: Q07DX002 (ip), vehicle: water)?
**A.** 112 % of control

**Q.** And the T/C (dose: 800.0 mg/kg/injection, schedule: Q07DX002 (ip), vehicle: saline)?
**A.** 87 % of control

**Q.** What about the T/C (dose: 800.0 mg/kg/injection, schedule: Q07DX002 (ip), vehicle: water) of the same molecule?
**A.** 83 % of control

**Q.** And the T/C [8]?
**A.** 98 % of control

**Q.** And the T/C (dose: 1600.0 mg/kg/injection, schedule: Q07DX002 (ip), vehicle: water)?
**A.** 106 % of control

**Q.** With `CC(C)CCCCCCCCCCCCC(=O)NCC(=O)NC1C(O)C(O)C(Nc2ncnc3nc[nH]c23)OC1C(O)CO` (stereo not given) as the molecule, how does the T/C (dose: 0.13 mg/kg/injection, schedule: Q07DX002 (ip), vehicle: saline) read?
**A.** 110 % of control

**Q.** And the T/C (dose: 0.25 mg/kg/injection, schedule: Q07DX002 (ip), vehicle: saline)?
**A.** 114 % of control

**Q.** And the T/C (dose: 1.0 mg/kg/injection, schedule: Q07DX002 (ip), vehicle: saline)?
**A.** 71 % of control

**Q.** What about the T/C (dose: 1.0 mg/kg/injection, schedule: Q07DX002 (ip), vehicle: suspension in saline) of the same molecule?
**A.** 114 % of control

**Q.** And the T/C [9]?
**A.** 87 % of control

**Q.** What about the T/C (dose: 2.0 mg/kg/injection, schedule: Q07DX002 (ip), vehicle: suspension in saline) of the same molecule?
**A.** 113 % of control

**Q.** And the T/C [10]?
**A.** 76 % of control

**Q.** What about the T/C (dose: 4.0 mg/kg/injection, schedule: Q07DX002 (ip), vehicle: suspension in saline) of the same molecule?
**A.** 42 % of control

**Q.** How did the T/C (dose: 1.0 mg/kg/injection, schedule: Q07DX002 (ip), vehicle: Klucel (hydroxypropylcellulose) (HPC)) turn out when `N/C(=N\O)c1cn(C2OC(CO)C(O)C2O)c2ncnc(N)c12` (stereo not given) was run?
**A.** 72 % of control

**Q.** What about the T/C (dose: 2.0 mg/kg/injection, schedule: Q07DX002 (ip), vehicle: Klucel (hydroxypropylcellulose) (HPC)) of the same molecule?
**A.** 82 % of control

**Q.** And the T/C (dose: 4.0 mg/kg/injection, schedule: Q07DX002 (ip), vehicle: Klucel (hydroxypropylcellulose) (HPC))?
**A.** 79 % of control

**Q.** What about the T/C (dose: 4.0 mg/kg/injection, schedule: Q07DX003 (ip), vehicle: Klucel (hydroxypropylcellulose) (HPC)) of the same molecule?
**A.** 6 % of control

**Q.** What about the T/C (dose: 8.0 mg/kg/injection, schedule: Q07DX002 (ip), vehicle: Klucel (hydroxypropylcellulose) (HPC)) of the same molecule?
**A.** 91 % of control

**Q.** What about the T/C (dose: 8.0 mg/kg/injection, schedule: Q07DX003 (ip), vehicle: Klucel (hydroxypropylcellulose) (HPC)) of the same molecule?
**A.** 17 % of control

**Q.** And the T/C (dose: 16.0 mg/kg/injection, schedule: Q07DX002 (ip), vehicle: Klucel (hydroxypropylcellulose) (HPC))?
**A.** 93 % of control

**Q.** What about the T/C (dose: 16.0 mg/kg/injection, schedule: Q07DX003 (ip), vehicle: Klucel (hydroxypropylcellulose) (HPC)) of the same molecule?
**A.** 7 % of control

**Q.** `N#CCCN(C(=S)Nc1cccc(C(F)(F)F)c1)C1CCCCC1` was tested. Which T/C [1] did it give?
**A.** 67 % of control and 71 % of control

**Q.** What about the T/C (dose: 200.0 mg/kg/injection, schedule: Q07DX002 (ip), vehicle: Klucel (hydroxypropylcellulose) (HPC)) of the same molecule?
**A.** 76 % of control and 80 % of control and 88 % of control

**Q.** And the T/C (dose: 800.0 mg/kg/injection, schedule: Q07DX002 (ip), vehicle: Klucel (hydroxypropylcellulose) (HPC))?
**A.** 79 % of control and 92 % of control

**Q.** What does the source list for `NC(=O)/C=C/c1c[nH]c2nccnc12`?
**A.** T/C [2]: 59 % of control; T/C (dose: 12.5 mg/kg/injection, schedule: Q07DX002 (ip), vehicle: water): 97 % of control; T/C [3]: 116 % of control; T/C [4]: 94 % of control

**Q.** Which results are given for `CC[C@@]1(O)C(=O)OCc2c1cc1n(c2=O)Cc2cc3cc(O)ccc3nc2-1`?
**A.** T/C (dose: 0.75 mg/kg/injection, schedule: Q07DX002 (ip), vehicle: saline): 92 % of control; T/C (dose: 1.5 mg/kg/injection, schedule: Q07DX002 (ip), vehicle: saline): 92 % of control; T/C (dose: 3.0 mg/kg/injection, schedule: Q07DX002 (ip), vehicle: saline): 91 % of control; T/C (dose: 6.0 mg/kg/injection, schedule: Q07DX002 (ip), vehicle: saline): 67 % of control; T/C (dose: 12.0 mg/kg/injection, schedule: Q07DX002 (ip), vehicle: saline): 81 % of control

**Q.** `C[C@H](N)C(=O)N[C@@H]1[C@H]2C(=C(O)C[C@@H](O)[C@@H]2O)C(=O)O[C@]1(C)C(Cl)Cl` was tested. Which T/C (dose: 0.37 mg/kg/injection, schedule: Q07DX002 (ip), vehicle: Klucel (hydroxypropylcellulose) (HPC)) did it give?
**A.** 97 % of control

**Q.** What about the T/C (dose: 0.38 mg/kg/injection, schedule: Q07DX002 (ip), vehicle: Klucel (hydroxypropylcellulose) (HPC)) of the same molecule?
**A.** 75 % of control

**Q.** What about the T/C (dose: 3.0 mg/kg/injection, schedule: Q07DX002 (ip), vehicle: Klucel (hydroxypropylcellulose) (HPC)) of the same molecule?
**A.** 53 % of control and 59 % of control

**Q.** What about the T/C (dose: 6.0 mg/kg/injection, schedule: Q07DX002 (ip), vehicle: Klucel (hydroxypropylcellulose) (HPC)) of the same molecule?
**A.** 30 % of control and 40 % of control

**Q.** Which T/C [5] does the source give for `CC(=O)NCCCCCCNC(C)=O` here?
**A.** 77 % of control

**Q.** And the T/C [6]?
**A.** 66 % of control and 81 % of control

**Q.** And the T/C [7]?
**A.** 108 % of control

**Q.** And the T/C [8]?
**A.** 90 % of control and 91 % of control

**Q.** Which results are given for `Nc1ccc2nc3ccc(N)cc3[n+](-c3ccccc3)c2c1`?
**A.** T/C [9]: 95 % of control; T/C [10]: 74 % of control; T/C (dose: 4.0 mg/kg/injection, schedule: Q07DX003 (ip), vehicle: saline): 28 % of control; T/C (dose: 8.0 mg/kg/injection, schedule: Q07DX002 (ip), vehicle: saline): 96 % of control; T/C (dose: 8.0 mg/kg/injection, schedule: Q07DX003 (ip), vehicle: saline): 43 % of control; T/C (dose: 16.0 mg/kg/injection, schedule: Q07DX002 (ip), vehicle: saline): 72 % of control; T/C (dose: 16.0 mg/kg/injection, schedule: Q07DX003 (ip), vehicle: saline): 46 % of control; T/C (dose: 32.0 mg/kg/injection, schedule: Q07DX002 (ip), vehicle: saline): 97 % of control; T/C (dose: 32.0 mg/kg/injection, schedule: Q07DX003 (ip), vehicle: saline): 43 % of control
